Reference: US11173151B2, “Substituted triazole derivatives and uses thereof” (BAYER AKTIENGESELLSCHAFT, priority 2017, dated 2021)
Like-named read-outs stand apart in the source and are kept apart here.

Key:
human V1a receptor = target: T1, human V1a receptor (Homo sapiens, UniProt P37288); experiment: Cellular in vitro assay for determining vasopressin receptor activity, V1a receptor cell line (CHO, aequorin luminescence); assay type: cell-based; details: for IC50: CHO cell line transfected with human V1a receptor, [Arg]-vasopressin at EC50 concentration, read-out: IC50 hV1a; for ratio IC50 hV2/hV1a: selectivity ratio IC50 hV2 / IC50 hV1a
T1 construct: expressed in transfected cells; host or cells: CHO K1 (ATCC), also stably transfected with a modified aequorin
T1 sequence (P37288 whole entry): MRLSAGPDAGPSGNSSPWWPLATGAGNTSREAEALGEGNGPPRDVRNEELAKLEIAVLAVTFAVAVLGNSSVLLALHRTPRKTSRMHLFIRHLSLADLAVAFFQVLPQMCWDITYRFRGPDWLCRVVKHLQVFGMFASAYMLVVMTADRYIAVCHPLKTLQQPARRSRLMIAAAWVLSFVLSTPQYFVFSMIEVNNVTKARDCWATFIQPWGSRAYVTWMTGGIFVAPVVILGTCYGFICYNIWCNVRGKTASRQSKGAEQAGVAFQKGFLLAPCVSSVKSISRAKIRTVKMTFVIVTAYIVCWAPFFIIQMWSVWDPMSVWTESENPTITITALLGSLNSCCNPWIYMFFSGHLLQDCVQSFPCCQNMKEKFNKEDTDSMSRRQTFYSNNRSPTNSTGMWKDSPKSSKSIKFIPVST
Procedure, shortened: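 IC50 from inhibition of [Arg]-vasopressin (EC50 concentration)-evoked aequorin luminescence in CHO K1 cells, with 10-min compound pretreatment.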

human V2 receptor = target: T2, human V2 receptor (Homo sapiens, UniProt P30518); experiment: Cellular in vitro assay for determining vasopressin receptor activity, V2 receptor cell line (CHO, CRE-luciferase); assay type: cell-based; details: CHO cell line transfected with human V2 receptor, [Arg8]-vasopressin at EC50 concentration, read-out: IC50 hV2
T2 construct: expressed in transfected cells; host or cells: CHO K1 (ATCC) expressing firefly luciferase under a CRE-responsive promoter
T2 sequence (P30518 whole entry): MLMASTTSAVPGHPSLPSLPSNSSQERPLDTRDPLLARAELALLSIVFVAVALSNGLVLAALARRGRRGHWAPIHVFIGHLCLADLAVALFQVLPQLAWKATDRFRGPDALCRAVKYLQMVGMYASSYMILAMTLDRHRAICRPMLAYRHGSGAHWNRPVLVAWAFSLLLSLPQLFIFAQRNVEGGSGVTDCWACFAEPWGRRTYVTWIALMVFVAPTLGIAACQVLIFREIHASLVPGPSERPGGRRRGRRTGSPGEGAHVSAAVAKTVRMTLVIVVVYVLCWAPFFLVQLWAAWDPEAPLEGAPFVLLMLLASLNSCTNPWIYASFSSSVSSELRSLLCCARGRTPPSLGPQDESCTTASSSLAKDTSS

Row | SMILES | IC50 (human V1a receptor) [nM] | ratio IC50 hV2/hV1a (human V1a receptor) | IC50 (human V2 receptor; 3 hours) [nM] | IC50 (human V2 receptor) [nM]
1 | O=C1CN(C(=O)c2nc(Cn3nc(-c4ccc(Cl)cc4)n(C[C@H](O)C(F)(F)F)c3=O)nn2-c2cnccc2C(=O)N[C@H]2C[C@H]2F)CCN1 (racemic) [Example 517, 3-{3-({3-(4-Chlorophenyl)-5-oxo-4-[(2S)-3,3,3-trifluoro-2-hydroxypropyl]-4,5-dihydro-1H-1,2,4-triazol-1-yl}methyl)-5-[(3-oxopiperazin-1-yl)carbonyl]-1H-1,2,4-triazol-1-yl}-N-[2-fluorocyclopropyl]pyridine-4-carboxamide] | 490 | 3.8 |  | 1840
2 | O=C(c1ncccc1-n1cnc(Cn2nc(-c3ccc(Cl)cc3)n(C[C@@H](O)C(F)(F)F)c2=O)n1)N1CCS(=O)(=O)CC1 [Example 479, 5-(4-Chlorophenyl)-2-[(1-{2-[(1,1-dioxidothiomorpholin-4-yl)carbonyl]pyridin-3-yl}-1H-1,2,4-triazol-3-yl)methyl]-4-[(2R)-3,3,3-trifluoro-2-hydroxypropyl]-2,4-dihydro-3H-1,2,4-triazol-3-one] | 1400 | 22.9 |  | 32000
3 | NC(=O)CNc1ccncc1-n1cnc(Cn2nc(-c3ccc(Cl)cc3)n(C[C@H](O)C(F)(F)F)c2=O)n1 [Example 17, N^2-{3-[3-({3-(4-Chlorophenyl)-5-oxo-4-[(2S)-3,3,3-trifluoro-2-hydroxypropyl]-4,5-dihydro-1H-1,2,4-triazol-1-yl}methyl)-1H-1,2,4-triazol-1-yl]pyridin-4-yl}glycinamide] | 2250 | 1.3 | 2850 | 
4 | O=CN1CCN(C(=O)c2ccccc2-n2cnc(Cn3nc(-c4ccc(Cl)cc4)n(C[C@H](O)C(F)(F)F)c3=O)n2)CC1 [Example 263, 4-{2-[3-({3-(4-Chlorophenyl)-5-oxo-4-[(2S)-3,3,3-trifluoro-2-hydroxypropyl]-4,5-dihydro-1H-1,2,4-triazol-1-yl}methyl)-1H-1,2,4-triazol-1-yl]benzoyl}piperazine-1-carbaldehyde] | 32.5 | 256.9 | 8350 | 
5 | O=C1CN(C(=O)c2ccccc2-n2cnc(Cn3nc(-c4ccc(Cl)cc4)n(C[C@H](O)C(F)(F)F)c3=O)n2)CN1 [Example 279, 5-(4-Chlorophenyl)-2-[(1-{2-[(4-oxoimidazolidin-1-yl)carbonyl]phenyl}-1H-1,2,4-triazol-3-yl)methyl]-4-[(2S)-3,3,3-trifluoro-2-hydroxypropyl]-2,4-dihydro-3H-1,2,4-triazol-3-one] | 27.5 | 98.2 | 2700 | 
6 | CN(CC1CC1)C(=O)c1ncccc1-n1cnc(Cn2nc(-c3ccc(Cl)cc3)n(C[C@@H](O)C(F)(F)F)c2=O)n1 [Example 482, 3-[3-({3-(4-Chlorophenyl)-5-oxo-4-[(2R)-3,3,3-trifluoro-2-hydroxypropyl]-4,5-dihydro-1H-1,2,4-triazol-1-yl}methyl)-1H-1,2,4-triazol-1-yl]-N-(cyclopropylmethyl)-N-methylpyridine-2-carboxamide] | 99 | 323.2 |  | 32000
7 | O=C(Nc1ccncc1-n1cnc(Cn2nc(-c3ccc(Cl)cc3)n(C[C@H](O)C(F)(F)F)c2=O)n1)OCC(F)(F)F [Example 26, 2,2,2-Trifluoroethyl {3-[3-({3-(4-chlorophenyl)-5-oxo-4-[(2S)-3,3,3-trifluoro-2-hydroxypropyl]-4,5-dihydro-1H-1,2,4-triazol-1-yl}methyl)-1H-1,2,4-triazol-1-yl]pyridin-4-yl}carbamate] | 58 | 5.6 | 323 | 
8 | NC(=O)[C@@H]1CCCN1c1ncccc1-n1cnc(Cn2nc(-c3ccc(Cl)cc3)n(C[C@H](O)C(F)(F)F)c2=O)n1 [Example 68, 1-{3-[3-({3-(4-Chlorophenyl)-5-oxo-4-[(2S)-3,3,3-trifluoro-2-hydroxypropyl]-4,5-dihydro-1H-1,2,4-triazol-1-yl}methyl)-1H-1,2,4-triazol-1-yl]pyridin-2-yl}-L-prolinamide] | 63.5 | 6.9 | 437 | 
9 | O=C(c1cccc(Cl)c1-n1cnc(Cn2nc(-c3ccc(Cl)cc3)n(C[C@H](O)C(F)(F)F)c2=O)n1)N1CC2(COC2)C1 [Example 411, 2-({1-[2-Chloro-6-(2-oxa-6-azaspiro[3.3]hept-6-ylcarbonyl)phenyl]-1H-1,2,4-triazol-3-yl}methyl)-5-(4-chlorophenyl)-4-[(2S)-3,3,3-trifluoro-2-hydroxypropyl]-2,4-dihydro-3H-1,2,4-triazol-3-one] | 365 | 13.3 |  | 4850

These reach a lower IC50 (human V1a receptor). Values come first.

Row | IC50 (human V1a receptor) [nM] | ratio IC50 hV2/hV1a (human V1a receptor) | IC50 (human V2 receptor; 3 hours) [nM] | IC50 (human V2 receptor) [nM] | SMILES
10 | 26.5 | 18.9 | 500 |  | Cc1cc(C(=O)Nc2ncccc2-n2cnc(Cn3nc(-c4ccc(Cl)cc4)n(C[C@H](O)C(F)(F)F)c3=O)n2)no1 [Example 161]
11 | 16 | 23.8 |  | 380 | O=C(N[C@@H]1C[C@@H]1F)c1ccncc1-n1cnc(Cn2nc(-c3ccc(Cl)cc3)n(C[C@H](O)C(F)(F)F)c2=O)n1 [Example 490, 3-[3-({3-(4-Chlorophenyl)-5-oxo-4-[(2S)-3,3,3-trifluoro-2-hydroxypropyl]-4,5-dihydro-1H-1,2,4-triazol-1-yl}methyl)-1H-1,2,4-triazol-1-yl]-N-[(1R,2S)-2-fluorocyclopropyl]pyridine-4-carboxamide]
12 | 6.83 | 83.2 | 568 |  | CC1(CNC(=O)c2ccccc2-n2cnc(Cn3nc(-c4ccc(Cl)cc4)n(C[C@H](O)C(F)(F)F)c3=O)n2)COC1 [Example 188, 2-[3-({3-(4-Chlorophenyl)-5-oxo-4-[(2S)-3,3,3-trifluoro-2-hydroxypropyl]-4,5-dihydro-1H-1,2,4-triazol-1-yl}ylmethyl)-1H-1,2,4-triazol-1-yl]-N-[(3-methyloxetan-3-yl)methyl]benzamide]
13 | 5.55 | 1612.6 | 8950 |  | CN(C)[C@@H]1CCN(C(=O)c2ccccc2-n2cnc(Cn3nc(-c4ccc(Cl)cc4)n(C[C@H](O)C(F)(F)F)c3=O)n2)C1 [Example 333, 5-(4-Chlorophenyl)-2-{[1-(2-{[(3R)-3-(dimethylamino)pyrrolidin-1-yl]carbonyl}phenyl)-1H-1,2,4-triazol-3-yl]methyl}-4-[(2S)-3,3,3-trifluoro-2-hydroxypropyl]-2,4-dihydro-3H-1,2,4-triazol-3-one]
14 | 4.95 | 92.9 | 460 |  | Cc1ncccc1NC(=O)c1ccccc1-n1cnc(Cn2nc(-c3ccc(Cl)cc3)n(C[C@H](O)C(F)(F)F)c2=O)n1 [Example 221, 2-[3-({3-(4-Chlorophenyl)-5-oxo-4-[(2S)-3,3,3-trifluoro-2-hydroxypropyl]-4,5-dihydro-1H-1,2,4-triazol-1-yl}methyl)-1H-1,2,4-triazol-1-yl]-N-(2-methylpyridin-3-yl)benzamide]
15 | 4.4 | 272.7 |  | 1200 | CC1(NC(=O)c2ncccc2-n2cnc(Cn3nc(-c4ccc(Cl)cc4)n(C[C@H](O)C(F)(F)F)c3=O)n2)CC1 [Example 455, 3-[3-({3-(4-Chlorophenyl)-5-oxo-4-[(2S)-3,3,3-trifluoro-2-hydroxypropyl]-4,5-dihydro-1H-1,2,4-triazol-1-yl}methyl)-1H-1,2,4-triazol-1-yl]-N-(1-methylcyclopropyl)pyridine-2-carboxamide]
16 | 4.28 | 608.2 | 2610 |  | CC(C)(N)CNC(=O)c1ccccc1-n1cnc(Cn2nc(-c3ccc(Cl)cc3)n(C[C@H](O)C(F)(F)F)c2=O)n1 [Example 173, N-(2-Amino-2-methylpropyl)-2-[3-({3-(4-chlorophenyl)-5-oxo-4-[(2S)-3,3,3-trifluoro-2-hydroxypropyl]-4,5-dihydro-1H-1,2,4-triazol-1-yl}methyl)-1H-1,2,4-triazol-1-yl]benzamide]
17 | 1.75 | 145.7 | 255 |  | O=C(NC1CCC1)c1ccccc1-n1cnc(Cn2nc(-c3ccc(Cl)cc3)n(C[C@H](O)C(F)(F)F)c2=O)n1 [Example 316, 2-[3-({3-(4-Chlorophenyl)-5-oxo-4-[(2S)-3,3,3-trifluoro-2-hydroxypropyl]-4,5-dihydro-1H-1,2,4-triazol-1-yl}methyl)-1H-1,2,4-triazol-1-yl]-N-cyclobutylbenzamide]
18 | 1.65 | 106.1 | 175 |  | Cc1ccc(F)c(NC(=O)c2ccccc2-n2cnc(Cn3nc(-c4ccc(Cl)cc4)n(C[C@H](O)C(F)(F)F)c3=O)n2)c1 [Example 307, 2-[3-({3-(4-Chlorophenyl)-5-oxo-4-[(2S)-3,3,3-trifluoro-2-hydroxypropyl]-4,5-dihydro-1H-1,2,4-triazol-1-yl}methyl)-1H-1,2,4-triazol-1-yl]-N-(2-fluoro-5-methylphenyl)benzamide]
19 | 1.12 | 2500.0 | 2800 |  | CC1(C)COCCN1C(=O)c1ccccc1-n1cnc(Cn2nc(-c3ccc(Cl)cc3)n(C[C@H](O)C(F)(F)F)c2=O)n1 [Example 281, 5-(4-Chlorophenyl)-2-[(1-{2-[(3,3-dimethylmorpholin-4-yl)carbonyl]phenyl}-1H-1,2,4-triazol-3-yl)methyl]-4-[(2S)-3,3,3-trifluoro-2-hydroxypropyl]-2,4-dihydro-3H-1,2,4-triazol-3-one]
